Assay [1] deals with T1, cIAP1 (Homo sapiens, UniProt Q13490).
T1 construct: induce autoubiquitination and degradation of cIAP1 in MDA-MB-231 breast cancer cells; endogenous in cells; host or cells: MDA-MB-231
Description: Western blot analysis of cIAP1 autoubiquitination and proteasomal degradation in MDA-MB-231 cells. To be noted: 10 µM, 15 and 120 min. The assay is classed as cell-based. How it is done: Prior to Western blot sample collection, cells were harvested by trypsinization, counted and seeded on 50 mm Petri dishes. After overnight incubation, the culture medium was replaced with fresh medium containing the tested compounds at the target concentration ranges with 0.1% (v/v) DMSO as a control. Next, the cells were washed with PBS and lysed with ice-cold RIPA buffer containing protease and phosphatase inhibitors (Sigma-Aldrich, Poznań, Poland), and after debris removal (4 °C, 15 min, 16,000 × g), the lysates were used in further experiments.
MDA-MB-231 cell lysates (25 µg of total protein/lane) were resolved by SDS-PAGE (4–12%, Tris-glycine, reducing conditions) and transferred onto a nitrocellulose membrane (0.45 µm pore size; Thermo Scientific, Gdańsk, Poland) using the semi-dry blotting system (Cleaver Scientific, Rugby, UK). The membrane was washed with 10 mM PBS (pH 7.4; 5 min, r.t.) and blocked with 5% skim milk in PBS supplemented with 0.05% Tween-20 (PBST) for 1 h at r.t. Subsequently, the membrane was washed with PBST (3 times for 5 min, r.t.) and incubated with rabbit anti-cIAP1 monoclonal IgG (1:1,000 in 0.5% skim milk in PBST; 4 °C, overnight; Cell Signaling Technology, Warszawa, Poland, Cat# 7065, D5G9). […]
For orientation: In western blotting, separated proteins are transferred to a membrane and probed.

Assay [2] concerns the target T2, XIAP BIR3 domain (Homo sapiens, UniProt P98170).
T2 construct: fluorescent probe 4 and the XIAP BIR3 domain (Sino Biological, Beijing, China) were used for all measurements; purchased Sino Biological, Beijing, China
Description: Fluorescence polarization inhibition (competition) assay. To be noted: for inhibition at 50 µM: 0.5 h, antagonist 50 µM, inhibition of protein-probe interaction; for Ki / EC50: XIAP BIR3 50 nM, fluorescent probe 4 2 nM. The assay is classed as binding. The essentials: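 BIR3 protein (50 nM) preincubated 15 min at r.t. with compound (50 μM to 0.0537 nM), then fluorescent probe 4 (2 nM) added and polarization read 30 min later (ex 484, em 528 nm). Phosphate buffer pH 7.5 with γ-globulin, NaN3, 1.4% DMSO; duplicates. EC50 from variable-slope fit, converted to Ki.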

The results in this text go back to article PMC7497679, “Structure-based design, synthesis, and evaluation of the biological activity of novel phosphoroorganic small molecule IAP antagonists” (Investigational New Drugs, 2020).

Each structure is given as a SMILES string. Where two headings read alike, the source gives them in different places.

T2 sequence (P98170 252-356 limits assumed): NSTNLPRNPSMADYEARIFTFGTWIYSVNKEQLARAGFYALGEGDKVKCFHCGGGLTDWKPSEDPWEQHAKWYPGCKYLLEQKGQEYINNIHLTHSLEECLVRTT
T1 sequence (Q13490 whole entry): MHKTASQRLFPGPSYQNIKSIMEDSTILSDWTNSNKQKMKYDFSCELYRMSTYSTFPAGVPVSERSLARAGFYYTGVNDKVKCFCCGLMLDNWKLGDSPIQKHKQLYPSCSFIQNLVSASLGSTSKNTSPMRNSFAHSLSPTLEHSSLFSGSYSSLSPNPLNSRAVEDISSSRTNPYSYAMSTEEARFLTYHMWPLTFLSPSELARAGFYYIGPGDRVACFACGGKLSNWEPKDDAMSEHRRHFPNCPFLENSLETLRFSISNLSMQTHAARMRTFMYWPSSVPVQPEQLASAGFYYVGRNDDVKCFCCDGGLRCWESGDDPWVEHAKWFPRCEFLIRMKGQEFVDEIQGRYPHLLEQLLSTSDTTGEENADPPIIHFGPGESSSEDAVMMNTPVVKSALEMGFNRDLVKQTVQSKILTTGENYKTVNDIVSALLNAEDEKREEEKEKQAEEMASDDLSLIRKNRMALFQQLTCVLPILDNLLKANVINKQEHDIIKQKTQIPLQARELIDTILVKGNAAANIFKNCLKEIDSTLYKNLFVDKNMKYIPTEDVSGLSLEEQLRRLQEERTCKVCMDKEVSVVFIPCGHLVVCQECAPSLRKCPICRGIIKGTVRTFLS

For `CN[C@@H](C)C(=O)N[C@H](C(=O)N1CCC[C@H]1C(=O)NC(Cc1ccccc1)P(=O)(Oc1ccccc1)Oc1ccccc1)C(C)C` (stereo partly drawn) [Compound 41, diphenyl (1-((S)-1-((S)-3-methyl-2-((S)-2-(methylamino)propanamido)butanoyl)pyrrolidine-2-carboxamido)-2-phenylethyl)phosphonate], in assay [1], the “induction of autoubiquitination and degradation of cIAP1” value is on record as “greatest ability to induce cIAP1 degradation”. Also, in assay [2], the inhibition (as a rule, the drop in the measured response relative to a control, in per cent) at 50 µM came to 100% and the Ki (as a rule, the equilibrium dissociation constant of an inhibitor or competing ligand from its target) was 50 nM. Besides, the EC50 (usually the concentration needed to bring the measured effect to its halfway point) in assay [2] (read-out: EC50) worked out at 130 nM. For the same compound, the EC50 in assay [2] (read-out: log EC50 (converted)) was 131 nM.
On to `CN[C@@H](C)C(=O)N[C@H](C(=O)N1CCC[C@H]1C(=O)NC(Cc1ccccc1)P(=O)(Oc1ccccc1)Oc1ccccc1)C1CCCCC1` (stereo partly drawn) [Compound 42, diphenyl (1-((S)-1-((S)-2-cyclohexyl-2-((S)-2-(methylamino)propanamido)acetyl)pyrrolidine-2-carboxamido)-2-phenylethyl)phosphonate], for which the “induction of autoubiquitination and degradation of cIAP1” value in assay [1] is “greatest ability to induce cIAP1 degradation”. For the same compound, in assay [2], the inhibition at 50 µM came out at 100% and the Ki came to 350 nM. Also, the 50% effective concentration (EC50) in assay [2] (read-out: EC50) was 740 nM. Besides, in assay [2] (read-out: log EC50 (converted)), the EC50 is 738 nM.
